Assay results reported in US10328054B2, “Substituted pyrrolidines as mGluR5 antagonists” (Hua Medicine (Shanghai) Ltd., priority 2015, dated 2019).

Target: recombinant rat mGluR5 (Rattus norvegicus (Rat), UniProt P31424)
Test: Functional calcium flux assay (FLIPR)
Assay type: cell-based
Details: HEK293 cells stably expressing recombinant rat mGluR5; inhibition of glutamate-evoked [Ca2+]i increase, 15 min incubation of test compound
Protocol: For functional assays, HEK293 cells stably expressing recombinant rat mGluR5 were seeded in 384-well plates and dye loaded using Fluo-8. Cells were then washed to remove the un-incorporated dye. Antagonist evaluation was performed following a 15 min incubation of the test compound followed by the addition of submaximal concentration of glutamate. Intracellular calcium ([Ca^2+]i) measurements were performed using a fluorometric imaging plate reader (FLIPR, Molecular Devices). The glutamate-evoked increase in [Ca^2+]i in the presence of the test compounds was compared to the response to glutamate alone (the positive control). Antagonist inhibition curves were fitted with a 4-parameter logistic equation giving IC50 values, and Hill coefficients using an iterative nonlinear curve fitting algorithm.
The tables below provide IC50 data in this assay. In the activity column, A=IC50>1,000 and <5,000 nM; B=IC50>500 and <1,000 nM and C=IC50<500 nM.

Chain of recombinant rat mGluR5 (P31424 21-1203): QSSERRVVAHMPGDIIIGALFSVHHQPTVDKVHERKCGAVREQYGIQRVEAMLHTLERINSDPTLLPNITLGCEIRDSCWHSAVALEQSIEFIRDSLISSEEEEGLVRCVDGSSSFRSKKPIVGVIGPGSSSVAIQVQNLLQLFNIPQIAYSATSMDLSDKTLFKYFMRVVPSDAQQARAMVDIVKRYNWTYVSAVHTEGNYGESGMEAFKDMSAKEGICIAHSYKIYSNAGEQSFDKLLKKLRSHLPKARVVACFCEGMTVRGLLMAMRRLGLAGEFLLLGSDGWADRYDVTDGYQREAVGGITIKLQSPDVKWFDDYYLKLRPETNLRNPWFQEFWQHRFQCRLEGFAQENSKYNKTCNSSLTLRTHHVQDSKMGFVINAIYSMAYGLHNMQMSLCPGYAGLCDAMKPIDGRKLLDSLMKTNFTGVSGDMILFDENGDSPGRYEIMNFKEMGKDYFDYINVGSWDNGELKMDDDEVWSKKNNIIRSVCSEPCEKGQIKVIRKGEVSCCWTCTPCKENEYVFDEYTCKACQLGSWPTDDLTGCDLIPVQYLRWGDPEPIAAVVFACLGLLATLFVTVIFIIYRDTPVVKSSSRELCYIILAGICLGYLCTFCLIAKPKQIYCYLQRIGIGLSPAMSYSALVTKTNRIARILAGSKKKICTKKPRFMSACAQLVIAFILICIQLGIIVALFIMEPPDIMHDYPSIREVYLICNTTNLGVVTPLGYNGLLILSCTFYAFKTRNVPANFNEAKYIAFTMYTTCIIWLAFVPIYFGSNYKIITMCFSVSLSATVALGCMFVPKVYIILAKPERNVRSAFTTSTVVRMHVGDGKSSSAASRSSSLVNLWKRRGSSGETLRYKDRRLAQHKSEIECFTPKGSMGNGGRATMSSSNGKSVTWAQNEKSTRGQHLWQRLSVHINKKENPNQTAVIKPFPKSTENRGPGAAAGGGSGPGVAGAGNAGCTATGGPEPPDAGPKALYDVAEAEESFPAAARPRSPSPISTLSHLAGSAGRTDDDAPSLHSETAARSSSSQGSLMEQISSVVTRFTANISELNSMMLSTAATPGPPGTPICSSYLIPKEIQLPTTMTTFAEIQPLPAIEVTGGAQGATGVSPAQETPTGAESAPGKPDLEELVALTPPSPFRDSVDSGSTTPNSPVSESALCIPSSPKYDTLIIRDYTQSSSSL

Row | SMILES | IC50 [nM]
1 | CCCCC(=O)N1CC2CC2(C#Cc2ccccn2)C1 (stereo not shown) [Example Compound 31, 1-(1-(pyridin-2-ylethynyl)-3-azabicyclo[3.1.0]hexan-3-yl)pentan-1-one] | < 500
2 | O=C(c1cccc(Cl)c1)N1CC2CC2(C#Cc2ncccn2)C1 (stereo not shown) [Example Compound 61, (3-chlorophenyl)-(1-(pyrimidin-2-ylethynyl)-3-azabicyclo[3.1.0]hexan-3-yl)methanone] | 500 to 1000
3 | Cc1cccc(C#CC23CC2CN(c2cc(F)cc(C#N)c2)C3)n1 (stereo not shown) [Example Compound 13, 3-fluoro-5-(1-((6-methylpyridin-2-yl)ethynyl)-3-azabicyclo[3.1.0]hexan-3-yl) benzonitrile] | < 500
4 | Fc1ccc(N2CC3CC3(C#Cc3ccccn3)C2)nc1 (stereo not shown) [Example Compound 6, 3-(5-fluoropyridin-2-yl)-1-(pyridin-2-ylethynyl)-3-azabicyclo[3.1.0]hexane] | < 500
5 | N#Cc1cc(F)cc(N2CC3CC3(C#Cc3cccnn3)C2)c1 (stereo not shown) [Example Compound 11, 3-fluoro-5-(1-(pyridazin-3-ylethynyl)-3-azabicyclo[3.1.0]hexan-3-yl)benzonitrile] | < 500
6 | COc1cccc(C#CC23CC2CN(c2cc(F)cc(C#N)c2)C3)n1 (stereo not shown) [Example Compound 15, 3-fluoro-5-(1-((6-methoxypyridin-2-yl)ethynyl)-3-azabicyclo[3.1.0]hexan-3-yl) benzonitrile] | < 500
7 | Cc1nc(C#CC23CC2CN(C(=O)c2ccccc2)C3)cs1 (stereo not shown) [Example Compound 66, (1-((2-methylthiazol-4-yl)ethynyl)-3-azabicyclo[3.1.0]hexan-3-yl)(phenyl)methanone] | < 500
8 | Fc1cc(N2CC3CC3(C#Cc3ccccn3)C2)ccc1Cl (stereo not shown) [Example Compound 22, 3-(4-chloro-3-fluorophenyl)-1-(pyridin-2-ylethynyl)-3-azabicyclo[3.1.0]hexane] | 500 to 1000
9 | CCCNC(=O)N1C[C@H]2C[C@@]2(C#Cc2ccccn2)C1 [Example Compound 58, (1R,5S)—N-propyl-1-(pyridin-2-ylethynyl)-3-azabicyclo[3.1.0]hexane-3-carboxamide] | < 500
10 | Cc1ccc(S(=O)(=O)N2CC3CC3(C#Cc3ccccn3)C2)cc1 (stereo not shown) [Example Compound 37, 1-(pyridin-2-ylethynyl)-3-tosyl-3-azabicyclo[3.1.0]hexane] | < 500
11 | O=C(CCc1ccccc1)N1CC2CC2(C#Cc2ccccn2)C1 (stereo not shown) [Example Compound 32, 3-phenyl-1-(1-(pyridin-2-ylethynyl)-3-azabicyclo[3.1.0]hexan-3-yl)propan-1-one] | < 500
12 | COC(=O)N1CC2CC2(C#Cc2ccccn2)C1 (stereo not shown) [Example Compound 53, methyl 1-(pyridin-2-ylethynyl)-3-azabicyclo[3.1.0]hexane-3-carboxylate] | < 500
13 | N#Cc1cc(F)cc(N2CC3CC3(C#Cc3cnccn3)C2)c1 (stereo not shown) [Example Compound 7, 3-fluoro-5-(1-(pyrazin-2-ylethynyl)-3-azabicyclo[3.1.0]hexan-3-yl) benzonitrile] | < 500
14 | FC(F)(F)Oc1ccc(N2CC3CC3(C#Cc3ccccn3)C2)cc1 (stereo not shown) [Example Compound 3, 1-(pyridin-2-ylethynyl)-3-(4-(trifluoromethoxy)phenyl)-3-azabicyclo[3.1.0]hexane] | 1000 to 5000
15 | O=C(NCC(F)(F)F)N1CC2CC2(C#Cc2ccccn2)C1 (stereo not shown) [Example Compound 60, 1-(pyridin-2-yl-ethynyl)-N-(2,2,2-trifluoroethyl)-3-azabicyclo[3.1.0]hexane-3-carboxamide] | < 500
16 | Fc1ccccc1N1CC2CC2(C#Cc2ccccn2)C1 (stereo not shown) [Example Compound 16, 3-(2-fluorophenyl)-1-(pyridin-2-ylethynyl)-3-azabicyclo[3.1.0]hexane] | < 500
17 | Clc1cccc(N2CC3CC3(C#Cc3ccccn3)C2)c1 (stereo not shown) [Example Compound 18, 3-(3-chlorophenyl)-1-(pyridin-2-ylethynyl)-3-azabicyclo[3.1.0]hexane] | < 500
18 | O=S(=O)(c1cccc(Cl)c1)N1CC2CC2(C#Cc2ccccn2)C1 (stereo not shown) [Example Compound 34, 3-((3-chlorophenyl)sulfonyl)-1-(pyridin-2-ylethynyl)-3-azabicyclo[3.1.0]hexane] | < 500
19 | O=S(=O)(c1ccccc1F)N1CC2CC2(C#Cc2ccccn2)C1 (stereo not shown) [Example Compound 42, 3-((2-fluorophenyl)sulfonyl)-1-(pyridin-2-ylethynyl)-3-azabicyclo[3.1.0]hexane] | < 500
20 | Cc1nc(C#CC23CC2CN(C(=O)C(C)C)C3)cs1 (stereo not shown) [Example Compound 68, 2-methyl-1-(1-((2-methylthiazol-4-yl)ethynyl)-3-azabicyclo[3.1.0]hexan-3-yl)propan-1-one] | < 500

Row | SMILES | IC50 [nM]
21 | Fc1cccc(N2CC3CC3(C#Cc3ncccn3)C2)c1 (stereo not shown) [Example Compound 46, 3-(3-fluorophenyl)-1-(pyrimidin-2-ylethynyl)-3-azabicyclo[3.1.0]hexane] | < 500
22 | O=C(c1ccccn1)N1CC2CC2(C#Cc2ccccn2)C1 (stereo not shown) [Example Compound 27, pyridin-2-yl(1-(pyridin-2-ylethynyl)-3-azabicyclo[3.1.0]hexan-3-yl)methanone] | < 500
23 | Cc1cccc(C#CC23CC2CN(C(=O)C(C)C)C3)n1 (stereo not shown) [Example Compound 64, 2-methyl-1-(1-((6-methylpyridin-2-yl)ethynyl)-3-azabicyclo[3.1.0]hexan-3-yl)propan-1-one] | < 500
24 | N#Cc1cccc(N2CC3CC3(C#Cc3ncccn3)C2)c1 (stereo not shown) [Example Compound 62, 3-(1-(pyrimidin-2-ylethynyl)-3-azabicyclo[3.1.0]hexan-3-yl)benzonitrile] | < 500
25 | Cc1cccc(C#CC23CC2CN(c2cncc(F)c2)C3)n1 (stereo not shown) [Example Compound 43, 3-(5-fluoropyridin-3-yl)-1-((6-methylpyridin-2-yl)ethynyl)-3-azabicyclo[3.1.0]hexane] | < 500
26 | Cc1nc(C#CC23CC2CN(c2cc(F)cc(C#N)c2)C3)cs1 (stereo not shown) [Example Compound 39, 3-fluoro-5-(1-((2-methylthiazol-4-yl)ethynyl)-3-azabicyclo[3.1.0]hexan-3-yl)benzonitrile] | < 500
27 | Cc1cccc(C#CC23CC2CN(C(=O)c2cccc(F)c2)C3)n1 (stereo not shown) [Example Compound 44, (3-fluorophenyl)-(1-((6-methylpyridin-2-yl)ethynyl)-3-azabicyclo[3.1.0]hexan-3-yl)methanone] | < 500
28 | O=C(Nc1ccccc1)N1CC2CC2(C#Cc2ccccn2)C1 (stereo not shown) [Example Compound 57, N-phenyl-1-(pyridin-2-ylethynyl)-3-azabicyclo[3.1.0]hexane-3-carboxamide] | 500 to 1000
29 | O=C(c1cccc(F)c1)N1CC2CC2(C#Cc2ccccn2)C1 (stereo not shown) [Example Compound 41, (3-fluorophenyl)-(1-(pyridin-2-ylethynyl)-3-azabicyclo[3.1.0]hexan-3-yl)methanone] | < 500
30 | O=C(c1ccccc1Cl)N1CC2CC2(C#Cc2ccccn2)C1 (stereo not shown) [Example Compound 30, (2-chlorophenyl) (1-(pyridin-2-ylethynyl)-3-azabicyclo[3.1.0]hexan-3-yl)methanone] | < 500
31 | O=S(=O)(c1ccccc1Cl)N1CC2CC2(C#Cc2ccccn2)C1 (stereo not shown) [Example Compound 36, 3-((2-chlorophenyl)sulfonyl)-1-(pyridin-2-ylethynyl)-3-azabicyclo[3.1.0]hexane] | < 500
32 | N#Cc1ccnc(N2CC3CC3(C#Cc3ccccn3)C2)c1 (stereo not shown) [Example Compound 23, 2-(1-(pyridin-2-ylethynyl)-3-azabicyclo[3.1.0]hexan-3-yl)isonicotinonitrile] | < 500
33 | Clc1ccccc1N1CC2CC2(C#Cc2ccccn2)C1 (stereo not shown) [Example Compound 17, 3-(2-chlorophenyl)-1-(pyridin-2-ylethynyl)-3-azabicyclo[3.1.0]hexane] | < 500
34 | Cc1cccnc1C#CC12CC1CN(c1cc(F)cc(C#N)c1)C2 (stereo not shown) [Example Compound 9] | 1000 to 5000
35 | O=C(c1cc(Cl)ccn1)N1CC2CC2(C#Cc2ccccn2)C1 (stereo not shown) [Example Compound 55, (4-chloropyridin-2-yl)-(1-(pyridin-2-ylethynyl)-3-azabicyclo[3.1.0]hexan-3-yl)methanone] | < 500
36 | N#Cc1cncc(N2CC3CC3(C#Cc3ccccn3)C2)c1 (stereo not drawn) [Example Compound 50, S-(1-(pyridin-2-ylethynyl)-3-azabicyclo[3.1.0]hexan-3-yl)nicotinonitrile] | < 500
37 | O=C(N1CCCC1)N1CC2CC2(C#Cc2ccccn2)C1 (stereo not shown) [Example Compound 59, (1-(pyridin-2-ylethynyl)-3-azabicyclo[3.1.0]hexan-3-yl)(pyrrolidin-1-yl)methanone] | < 500
38 | CC(C)(C)C(=O)N1C[C@H]2C[C@@]2(C#Cc2ccccn2)C1 [Example Compound 52, 2,2-dimethyl-1-((1R,5S)-1-(pyridin-2-ylethynyl)-3-azabicyclo[3.1.0]hexan-3-yl)propan-1-one] | < 500
39 | CC(C)C(=O)N1CC2CC2(C#Cc2cccc(Cl)n2)C1 (stereo not shown) [Example Compound 65, 1-(1-((6-chloropyridin-2-yl)ethynyl)-3-azabicyclo[3.1.0]hexan-3-yl)-2-methylpropan-1-one] | < 500
40 | N#Cc1cc(F)cc(N2CC3CC3(C#Cc3ccnc(Cl)c3)C2)c1 (stereo not shown) [Example Compound 12, 3-(1-((2-chloropyridin-4-yl)ethynyl)-3-azabicyclo[3.1.0]hexan-3-yl)-S-fluorobenzonitrile] | < 500
